Measurements taken from patent US7795218B2, “ADP-ribosyl transferase fusion variant proteins” (priority 2003, dated 2010).

Assays:
Assay type in all cases: cell-based, human
HUVEC [1] = assay: HUVEC tube formation on ECmatrix; conditions: 50 μM
Experimental: FIG. 31 illustrates that SEQ ID NO: 10 decreases tube formation in HUVEC, wherein HUVEC were seeded on solidified ECmatrix™ without (Control) or with 10 μg/mL or 50 μg/mL of SEQ ID NO: 10 or the angiogenesis inhibitor Tranilast, cells were also incubated with 10 μM or 50 μM of the ROCK inhibitor Fasudil, capillary-like structures were visualized between 6 h to 20 h incubation, and wherein in (A) photographs were taken under phase contrast inverted microscope at 40× magnification and (B) quantification of tube length was reported as percentage of the length from untreated cells SEM (photographs and quantification are representative of at least 2 independent experiments analyzed in triplicate; symbols * and ** represent respectively significant (p<0.05) and highly significant (p<0.01) difference from untreated cells);
Referring to FIG. 31, to evaluate the importance of the signalling pathway Rho-Rock in angiogenesis, Transilat (10 μg/ml and 50 μg/ml) is used as a positive control. Transilat is known to block one of the principal angiogenesis routes i.e. the VEGF pathway. The binding of VEGF to VEGF-R stimulates tyrosine auto-phosphorylation of one of the receptors which initiates a signalling pathway, in part through PKC. Tranilast acts by inhibiting VEGF dependent PKC activation. […]

HUVEC [2] = assay: HUVEC proliferation (Alamar blue); conditions: up to 100 μg/mL (or μM), 24 hr or 72 hr
Experimental: FIG. 32 illustrates that SEQ ID NO: 10 affects HUVEC proliferation at high concentration, wherein HUVEC were plated in 96 wells (collagen 1-coated) and incubated during 24 h or 72 with 0 to 100 μg/mL (or μM) of SEQ ID NO: 10, Fasudil or Tranilast, cells from 4 h and 24 h were washed out and replenished with fresh media containing no test compounds and left until 72 hours, and at the end of treatment (72 hours) Alamar blue was added, incubated for 4 hours and fluorescence was measured. Proliferation is represented in a graph as a percentage of that from untreated cells (0 μg/mL)±S.D. and represents 2 independent studies analyzed in triplicate;
Given that SEQ ID NO: 10 efficiently ribosylates RhoA and therefore inhibits its activity under these conditions, it appears that the proliferation of HUVEC in this system, along with this part of the angiogenic sequence, proceeds independently of RhoA activity. In contrast, HUVEC proliferation seems to depend on Rho kinase activity as well as on the activity of those targets, possibly including protein kinase C, blocked by Tranilast.

HUVEC [3] = assay: VEGF-dependent HUVEC migration (transwell); conditions: 20 hours
Experimental: FIG. 33 illustrates that SEQ ID NO: 10 can modify VEGF-dependent HUVEC migration, wherein in (A) HUVEC were seeded into 24-well-fibronectin-coated transwell chambers containing SEQ ID NO: 10, Fasudil or Tranilast, migration was stimulated for 20 hours with 10 ng/mL of VEGF with or without test compound, migrated cells were measured by fluorescence using Calcein-AM as a probe, and in (B) HUVEC were pre-treated for 24 hours with 50 μg/mL of SEQ ID NO: 10 prior to the start of migration (results are expressed as a percentage of that from untreated cells stimulated with VEGF±SEM and represent 4 independent experiments analyzed in duplicate; symbols * and *** represent, respectively, significant (p<0.05) and highly significant (p<0.001) difference from untreated cells+VEGF (Control+VEGF); symbol # # # represents significant difference (p<0.001) from untreated cells−VEGF (Control−VEGF));
Another cellular function and part of the angiogenic process that is known to be perturbed by Rho GTPase inhibition is endothelial cell migration. In order to evaluate the effect of SEQ ID NO: 10 on HUVEC migration, cells are seeded in the upper side of a transwell insert along with the desired test compounds, and migration is then induced with 10 ng/mL of VEGF at the bottom side of the insert. After 20 hours of migration, cells that pass through the membrane of the insert are labeled with calcein AM probe and detected via fluorescence. […].

Compound | decrease of tube formation (HUVEC [1]) | HUVEC proliferation (HUVEC [2]) | decrease of VEGF-induced HUVEC migration (HUVEC [3]; 50 μM) | decrease of VEGF-induced HUVEC migration (HUVEC [3]; 10 μg/mL) | decrease of VEGF-induced HUVEC migration (HUVEC [3]; 50 μg/mL)
O=S(=O)(c1cccc2cnccc12)N1CCCNCC1 [Fasudil] | 58% | significant (p<0.01) reductions in HUVEC cell proliferation | 66% |  | 
COc1ccc(/C=C/C(=O)Nc2ccccc2C(=O)O)cc1OC [Tranilast] |  |  |  | 45% | 72%
